Reference: patent US20130281465A1, “PYRAZOLE DERIVATIVE” (TAISHO PHARMACEUTICAL CO., LTD., priority 2010, published 2013)

Tests used:
[1] = target: T1, orexin type 2 receptor (hOX2R) (Homo sapiens, UniProt O43614); test: Orexin receptor antagonistic activity, intracellular Ca2+ fluorescence (FDSS) in CHO cells expressing hOX2R; type: cell-based; conditions: CHO cells forced to express hOX2R; orexin-A analogue peptide ligand 3 nM; Fluo-4 maximum fluorescence; read-out: IC50 value OX2R
T1 construct: expressed in transfected cells; host or cells: Chinese hamster ovary (CHO) cells
T1 sequence (O43614 1-444): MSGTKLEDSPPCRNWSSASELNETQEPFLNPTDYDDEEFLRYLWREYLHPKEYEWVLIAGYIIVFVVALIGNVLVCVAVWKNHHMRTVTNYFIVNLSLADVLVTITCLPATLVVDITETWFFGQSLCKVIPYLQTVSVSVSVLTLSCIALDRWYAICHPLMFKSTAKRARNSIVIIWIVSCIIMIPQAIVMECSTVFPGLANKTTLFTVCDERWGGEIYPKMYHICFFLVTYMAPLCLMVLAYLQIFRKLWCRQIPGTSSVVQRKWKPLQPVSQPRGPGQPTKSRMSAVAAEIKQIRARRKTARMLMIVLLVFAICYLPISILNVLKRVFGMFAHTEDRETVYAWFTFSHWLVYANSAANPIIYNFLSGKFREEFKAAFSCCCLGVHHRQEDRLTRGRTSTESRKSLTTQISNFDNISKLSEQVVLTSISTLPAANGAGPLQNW
Procedure: (§1) The antagonistic activity of each test compound against human orexin type 1 receptor (hOX1R) and orexin type 2 receptor (hOX2R) was performed as described in the literature with a modification (Toshikatsu Okumura et al., Biochemical and Biophysical Research Communications 280, 976-981, 2001). Chinese hamster ovary (CHO) cells forced to express hOX1R or hOX2R were seeded at 20,000 cells/well on a 96 well Black clear bottom plates (Nunc) and cultured for 16 hours under conditions of 37° C. and 5% CO2 using a Ham's F-12 medium containing 0.1 mM MEM non-essential amino acids, 0.5 mg/ml G418, and 10% fetal bovine serum (all from Invitrogen Corp.). After removal of the medium, 100 μL of the assay buffer (25 mM HEPES (Dojindo Laboratories), Hanks' balanced salt solution (Invitrogen Corp.), 0.1% bovine serum albumin, 2.5 mM probenecid, 200 μg/ml Amaranth (all from Sigma-Aldrich Corp.), pH 7.4) containing 0.5 μM Fluo-4AM ester (Dojindo Laboratories) was added thereto, and the cells were incubated for 60 minutes under conditions of 37° C. and 5% CO2. After removal of the buffer solution for assay containing Fluo-4AM ester, the test compound was dissolved at a concentration of 10 mM in dimethyl sulfoxide and diluted with the assay buffer, and 150 μL of the diluted solution was then added to each wells, which were then incubated for 30 minutes.
(§2) A peptide (Pyr-[…]11e-Leu-Thr-Leu-NH2; Peptide Institute, Inc.) substituted 2 amino acids of human orexin-A was diluted with the assay buffer to 300 pM (final concentration for hOX1R) or 3 nM (final concentration for hOX2R). 50 μL of this ligand solution was added thereto to start reaction. During the reaction, the fluorescence value of each well was measured every one second for 3 minutes using Functional Drug Screening System (FDSS; manufactured by Hamamatsu Photonics K.K.), and antagonistic activity was determined with the maximum fluorescence value as an index for intracellular Ca^2+ concentration. The antagonistic activity of the test compound was calculated with the fluorescence value of a well supplemented with only a dilution buffer solution as 100% and the fluorescence value of a well supplemented with a buffer solution containing neither the ligand nor the compound as 0%, and determined in terms of 50% inhibitory concentration (IC50 value) from fluorescence values derived from the test compound added at varying concentrations.

[2] = target: T2, human orexin type 1 receptor (hOX1R) (Homo sapiens, UniProt O43613); test: Orexin receptor antagonistic activity, intracellular Ca2+ fluorescence (FDSS) in CHO cells expressing hOX1R; type: cell-based; conditions: CHO cells forced to express hOX1R; orexin-A analogue peptide ligand 300 pM; Fluo-4 maximum fluorescence; read-out: IC50 value OX1R
T2 construct: expressed in transfected cells; host or cells: Chinese hamster ovary (CHO) cells
T2 sequence (O43613 1-425): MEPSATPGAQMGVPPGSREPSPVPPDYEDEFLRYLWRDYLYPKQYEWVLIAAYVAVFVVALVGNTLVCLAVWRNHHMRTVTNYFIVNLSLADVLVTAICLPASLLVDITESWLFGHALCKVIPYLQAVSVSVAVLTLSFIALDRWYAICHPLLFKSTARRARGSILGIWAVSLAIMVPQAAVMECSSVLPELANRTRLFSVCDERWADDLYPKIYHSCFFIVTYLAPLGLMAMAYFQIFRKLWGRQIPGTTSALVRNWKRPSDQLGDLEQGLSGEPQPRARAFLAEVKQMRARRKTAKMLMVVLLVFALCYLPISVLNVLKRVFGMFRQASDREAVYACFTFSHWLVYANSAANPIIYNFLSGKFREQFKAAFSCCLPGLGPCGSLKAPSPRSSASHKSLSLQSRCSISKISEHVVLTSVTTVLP
Procedure: as §1, §2

SMILES | IC50 [1] | IC50 [2]
CCN(CCn1ccc(-c2cccc(C(F)(F)F)n2)n1)C(=O)c1cc(F)ccc1-c1ncccn1 [Example 57, N-ethyl-5-fluoro-2-(pyrimidin-2-yl)-N-(2-{3-[6-(trifluoromethyl)pyridin-2-yl]-1H-pyrazol-1-yl}ethyl)benzamide] | 99.5 nM | 22.9 nM
CCN(CCn1ccc(-c2cc(C(F)(F)F)ccn2)n1)C(=O)c1cc(C)ccc1-n1nccn1 [Example 60, N-ethyl-5-methyl-2-(2H-1,2,3-triazol-2-yl)-N-(2-{3-[4-(trifluoromethyl)pyridin-2-yl]-1H-pyrazol-1-yl}ethyl)benzamide] | 127 nM | 21.9 nM
Cc1ccc(-n2nccn2)c(C(=O)N(CCn2ccc(-c3ccccc3)n2)CC2CC2)c1 [Example 29, N-(cyclopropylmethyl)-5-methyl-N-[2-(3-phenyl-1H-pyrazol-1-yl)ethyl]-2-(2H-1,2,3-triazol-2-yl)benzamide] | 6.1 nM | 1.5 nM
CCN(CCn1ccc(-c2ccc(F)cn2)n1)C(=O)c1c(F)cccc1-c1ncccn1 [Example 46, N-ethyl-2-fluoro-N-{2-[3-(5-fluoropyridin-2-yl)-1H-pyrazol-1-yl]ethyl}-6-(pyrimidin-2-yl)benzamide] | 149 nM | 92.5 nM
CCN(CCn1ccc(-c2ccc(F)c(F)c2)n1)C(=O)c1cc(F)ccc1-c1ncccn1 [Example 53, N-{2-[3-(3,4-difluorophenyl)-1H-pyrazol-1-yl]ethyl}-N-ethyl-5-fluoro-2-(pyrimidin-2-yl)benzamide] | 7.8 nM | 1.5 nM
CCN(CCn1ccc(-c2cccc(C(F)(F)F)n2)n1)C(=O)c1ccccc1-c1ncccn1 [Example 58, N-ethyl-(pyrimidin-2-yl)-N-(2-{3-[6-(trifluoromethyl)pyridin-2-yl]-1H-pyrazol-1-yl}ethyl)benzamide] | 140 nM | 78.9 nM
CCN(CCn1ccc(-c2ccc(C(F)(F)F)cn2)n1)C(=O)c1cc(C)ccc1-n1nccn1 [Example 51, N-ethyl-5-methyl-2-(2H-1,2,3-triazol-2-yl)-N-(2-{3-[5-(trifluoromethyl)pyridin-2-yl]-1H-pyrazol-1-yl}ethyl)benzamide] | 394 nM | 50.9 nM

Further lines, results first:

IC50 [1] | IC50 [2] | SMILES
1.8 nM | 1.3 nM | Cc1ccc(-n2nccn2)c(C(=O)N(CCn2ccc(-c3ccc(F)cn3)n2)C2CC2)c1 [Example 30, N-cyclopropyl-N-{2-[3-(5-fluoropyridin-2-yl)-1H-pyrazol-1-yl]ethyl}-5-methyl-2-(2H-1,2,3-triazol-2-yl)benzamide]
15.4 nM | 9.8 nM | Cc1ccc(-n2nccn2)c(C(=O)N(CCn2cc(-c3ccc(F)cn3)cn2)C2CC2)c1 [Example 13, N-cyclopropyl-N-{2-[4-(5-fluoropyridin-2-yl)-1H-pyrazol-1-yl]ethyl}-5-methyl-2-(2H-1,2,3-triazol-2-yl)benzamide]
88.3 nM | 29.8 nM | CCN(CCn1cc(-c2ccc(F)cn2)cn1)C(=O)c1cc(C)ccc1-c1ncccn1 [Example 15, N-ethyl-N-{2-[4-(5-fluoropyridin-2-yl)-1H-pyrazol-1-yl]ethyl}-5-methyl-2-(pyrimidin-2-yl)benzamide]
2.3 nM | 1.6 nM | CCN(CCn1cc(-c2ccc(F)cn2)cn1)C(=O)c1cc(Cl)ccc1-n1nccn1 [Example 55, 5-Chloro-N-ethyl-N-{2-[4-(5-fluoropyridin-2-yl)-1H-pyrazol-1-yl]ethyl}-2-(2H-1,2,3-triazol-2-yl)benzamide]
